Laboratory results reported in PMC4385830, “Group I Paks as therapeutic targets in NF2-deficient meningioma” (Oncotarget, 2015).

Tests used:
Experiment in all cases: Kinase selectivity, Z'-LYTE
Assay type in all cases: biochemical
[1] = target: T1, PDGFRA (PDGFR alpha) (Homo sapiens, UniProt P16234)
T1 construct: purchased Invitrogen (Life Technologies) SelectScreen Z'-LYTE
Method: (§1) Kinase selectivity was assessed using a commercial service that employs a fluorescence-based, coupled-enzyme assay based on the differential sensitivity of phosphorylated and non-phosphorylated peptides to proteolytic cleavage (Invitrogen, Z'-LYTE®). This assay uses recombinant protein kinases and assay mixed optimized for each particular kinase (http://www.lifetechnologies.com/us/en/home/life-science/drug-discovery/target-and-lead-identification-and-validation /kinasebiology/kinase-activity-assays/z-lyte.html).

[2] = target: T2, MAPK8 (JNK1) (Homo sapiens, UniProt P45983)
T2 construct: purchased Invitrogen (Life Technologies) SelectScreen Z'-LYTE
Method: as §1

[3] = target: T3, MARK3 (Homo sapiens, UniProt P27448)
T3 construct: purchased Invitrogen (Life Technologies) SelectScreen Z'-LYTE
Method: as §1

[4] = target: T4, RP88KB1 (p70S6K) (Homo sapiens, UniProt P23443)
T4 construct: purchased Invitrogen (Life Technologies) SelectScreen Z'-LYTE
Method: as §1

[5] = target: T5, JAK3 (Homo sapiens, UniProt P52333)
T5 construct: purchased Invitrogen (Life Technologies) SelectScreen Z'-LYTE
T5 sequence (P52333 1-1124): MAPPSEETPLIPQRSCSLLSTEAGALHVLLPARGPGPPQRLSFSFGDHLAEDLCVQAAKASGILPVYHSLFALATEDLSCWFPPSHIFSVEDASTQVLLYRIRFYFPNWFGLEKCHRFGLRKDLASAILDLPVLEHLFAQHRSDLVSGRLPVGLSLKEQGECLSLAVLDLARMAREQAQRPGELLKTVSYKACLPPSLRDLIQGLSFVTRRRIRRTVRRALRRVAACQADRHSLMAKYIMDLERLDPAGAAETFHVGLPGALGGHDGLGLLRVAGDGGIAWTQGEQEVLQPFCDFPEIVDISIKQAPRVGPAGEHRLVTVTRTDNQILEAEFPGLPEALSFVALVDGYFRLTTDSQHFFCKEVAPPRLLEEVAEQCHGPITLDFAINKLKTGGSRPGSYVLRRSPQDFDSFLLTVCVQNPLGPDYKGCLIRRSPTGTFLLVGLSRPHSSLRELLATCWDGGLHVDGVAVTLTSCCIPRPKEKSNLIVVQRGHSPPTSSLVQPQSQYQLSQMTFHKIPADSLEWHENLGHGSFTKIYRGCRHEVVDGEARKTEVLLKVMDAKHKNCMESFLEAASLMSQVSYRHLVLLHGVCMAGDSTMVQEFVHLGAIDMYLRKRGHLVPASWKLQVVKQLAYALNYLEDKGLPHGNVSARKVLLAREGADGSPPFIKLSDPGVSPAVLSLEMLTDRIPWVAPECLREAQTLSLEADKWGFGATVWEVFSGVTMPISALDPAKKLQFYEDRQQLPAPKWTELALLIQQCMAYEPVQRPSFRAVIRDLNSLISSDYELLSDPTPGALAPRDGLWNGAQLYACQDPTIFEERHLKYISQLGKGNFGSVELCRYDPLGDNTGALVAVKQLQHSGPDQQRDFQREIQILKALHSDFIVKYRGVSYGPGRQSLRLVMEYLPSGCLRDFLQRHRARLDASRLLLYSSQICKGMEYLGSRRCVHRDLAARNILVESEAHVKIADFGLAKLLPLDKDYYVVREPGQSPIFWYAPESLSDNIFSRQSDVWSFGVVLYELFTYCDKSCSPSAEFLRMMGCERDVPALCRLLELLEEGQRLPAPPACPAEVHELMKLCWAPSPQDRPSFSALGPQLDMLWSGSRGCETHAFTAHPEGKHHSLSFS
Method: as §1

[6] = target: T6, EGFR (ErbB1) (Homo sapiens, UniProt P00533)
T6 construct: purchased Invitrogen (Life Technologies) SelectScreen Z'-LYTE
Method: as §1

[7] = target: T7, PRKACA (PKA) (Homo sapiens, UniProt P17612)
T7 construct: purchased Invitrogen (Life Technologies) SelectScreen Z'-LYTE
Method: as §1

[8] = target: T8, P1K3C2B (P13K-C2-beta) (Homo sapiens, UniProt O00750)
T8 construct: purchased Invitrogen (Life Technologies) SelectScreen Z'-LYTE
Method: as §1

[9] = target: T9, IGF1R (Homo sapiens, UniProt P08069)
T9 construct: purchased Invitrogen (Life Technologies) SelectScreen Z'-LYTE
Method: as §1

[10] = target: T10, MAPK3 (ERK1) (Homo sapiens, UniProt P27361)
T10 construct: purchased Invitrogen (Life Technologies) SelectScreen Z'-LYTE
Method: as §1

[11] = target: T11, TEK (Tie2) (Homo sapiens, UniProt Q02763)
T11 construct: purchased Invitrogen (Life Technologies) SelectScreen Z'-LYTE
Method: as §1

[12] = target: T12, JAK2 (Homo sapiens, UniProt O60674)
T12 construct: purchased Invitrogen (Life Technologies) SelectScreen Z'-LYTE
Method: as §1

[13] = target: T13, AXL (Homo sapiens, UniProt P30530)
T13 construct: purchased Invitrogen (Life Technologies) SelectScreen Z'-LYTE
T13 sequence (P30530 26-894): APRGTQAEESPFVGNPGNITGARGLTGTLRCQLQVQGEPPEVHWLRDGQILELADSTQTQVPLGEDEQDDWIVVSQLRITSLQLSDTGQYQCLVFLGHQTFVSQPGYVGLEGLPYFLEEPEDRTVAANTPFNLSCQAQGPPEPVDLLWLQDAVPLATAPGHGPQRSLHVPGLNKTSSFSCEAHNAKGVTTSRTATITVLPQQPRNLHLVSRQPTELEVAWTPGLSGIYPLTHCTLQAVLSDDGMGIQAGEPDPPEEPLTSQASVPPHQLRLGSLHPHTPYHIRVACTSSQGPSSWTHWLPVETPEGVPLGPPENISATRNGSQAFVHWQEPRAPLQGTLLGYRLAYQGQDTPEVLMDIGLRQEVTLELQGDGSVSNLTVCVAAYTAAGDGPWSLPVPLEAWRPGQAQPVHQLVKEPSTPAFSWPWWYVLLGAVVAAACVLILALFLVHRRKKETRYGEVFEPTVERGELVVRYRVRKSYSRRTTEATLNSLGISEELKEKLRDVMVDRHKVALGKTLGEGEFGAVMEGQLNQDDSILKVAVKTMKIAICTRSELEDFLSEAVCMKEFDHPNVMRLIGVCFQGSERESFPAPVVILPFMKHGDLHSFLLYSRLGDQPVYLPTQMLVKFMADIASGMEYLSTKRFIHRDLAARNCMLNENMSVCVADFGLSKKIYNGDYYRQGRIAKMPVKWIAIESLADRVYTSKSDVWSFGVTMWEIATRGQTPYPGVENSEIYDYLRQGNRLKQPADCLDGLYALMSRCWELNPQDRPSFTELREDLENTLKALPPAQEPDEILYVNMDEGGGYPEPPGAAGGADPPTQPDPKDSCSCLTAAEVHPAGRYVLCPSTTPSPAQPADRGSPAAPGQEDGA
Method: as §1

[14] = target: T14, FRAP1 (mTOR) (Homo sapiens, UniProt P42345)
T14 construct: purchased Invitrogen (Life Technologies) SelectScreen Z'-LYTE
Method: as §1

T11 sequence (Q02763 23-1124): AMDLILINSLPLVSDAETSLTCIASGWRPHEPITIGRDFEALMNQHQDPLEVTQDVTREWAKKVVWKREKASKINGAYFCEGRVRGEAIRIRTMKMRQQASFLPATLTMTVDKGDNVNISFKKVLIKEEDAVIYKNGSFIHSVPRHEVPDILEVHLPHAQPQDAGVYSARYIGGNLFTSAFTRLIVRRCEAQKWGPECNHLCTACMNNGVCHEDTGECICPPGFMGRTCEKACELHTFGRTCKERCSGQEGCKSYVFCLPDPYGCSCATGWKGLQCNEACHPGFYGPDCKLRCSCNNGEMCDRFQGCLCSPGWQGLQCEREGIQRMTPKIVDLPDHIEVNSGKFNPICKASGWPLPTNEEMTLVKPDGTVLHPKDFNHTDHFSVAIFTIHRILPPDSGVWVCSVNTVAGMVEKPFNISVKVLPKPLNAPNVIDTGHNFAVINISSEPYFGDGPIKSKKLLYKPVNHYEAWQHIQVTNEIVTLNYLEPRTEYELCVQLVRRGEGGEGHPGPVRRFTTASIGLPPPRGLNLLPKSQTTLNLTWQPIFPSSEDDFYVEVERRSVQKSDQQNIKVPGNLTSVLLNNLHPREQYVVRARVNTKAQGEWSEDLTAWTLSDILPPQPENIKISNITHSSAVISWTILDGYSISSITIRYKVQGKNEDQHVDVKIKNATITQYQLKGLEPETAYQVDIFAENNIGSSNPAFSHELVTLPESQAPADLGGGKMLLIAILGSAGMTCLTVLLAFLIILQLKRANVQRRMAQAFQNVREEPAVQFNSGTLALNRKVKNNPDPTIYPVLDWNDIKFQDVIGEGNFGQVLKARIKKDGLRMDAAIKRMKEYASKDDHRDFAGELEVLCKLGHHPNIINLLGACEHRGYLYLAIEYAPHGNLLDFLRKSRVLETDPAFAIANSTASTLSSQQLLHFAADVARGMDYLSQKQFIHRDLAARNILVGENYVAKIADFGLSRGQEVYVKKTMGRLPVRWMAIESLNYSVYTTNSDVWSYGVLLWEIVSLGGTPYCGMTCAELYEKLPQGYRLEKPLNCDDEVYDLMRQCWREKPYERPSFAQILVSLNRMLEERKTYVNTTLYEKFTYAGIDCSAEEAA
T8 sequence (O00750 whole entry, stated change not applied): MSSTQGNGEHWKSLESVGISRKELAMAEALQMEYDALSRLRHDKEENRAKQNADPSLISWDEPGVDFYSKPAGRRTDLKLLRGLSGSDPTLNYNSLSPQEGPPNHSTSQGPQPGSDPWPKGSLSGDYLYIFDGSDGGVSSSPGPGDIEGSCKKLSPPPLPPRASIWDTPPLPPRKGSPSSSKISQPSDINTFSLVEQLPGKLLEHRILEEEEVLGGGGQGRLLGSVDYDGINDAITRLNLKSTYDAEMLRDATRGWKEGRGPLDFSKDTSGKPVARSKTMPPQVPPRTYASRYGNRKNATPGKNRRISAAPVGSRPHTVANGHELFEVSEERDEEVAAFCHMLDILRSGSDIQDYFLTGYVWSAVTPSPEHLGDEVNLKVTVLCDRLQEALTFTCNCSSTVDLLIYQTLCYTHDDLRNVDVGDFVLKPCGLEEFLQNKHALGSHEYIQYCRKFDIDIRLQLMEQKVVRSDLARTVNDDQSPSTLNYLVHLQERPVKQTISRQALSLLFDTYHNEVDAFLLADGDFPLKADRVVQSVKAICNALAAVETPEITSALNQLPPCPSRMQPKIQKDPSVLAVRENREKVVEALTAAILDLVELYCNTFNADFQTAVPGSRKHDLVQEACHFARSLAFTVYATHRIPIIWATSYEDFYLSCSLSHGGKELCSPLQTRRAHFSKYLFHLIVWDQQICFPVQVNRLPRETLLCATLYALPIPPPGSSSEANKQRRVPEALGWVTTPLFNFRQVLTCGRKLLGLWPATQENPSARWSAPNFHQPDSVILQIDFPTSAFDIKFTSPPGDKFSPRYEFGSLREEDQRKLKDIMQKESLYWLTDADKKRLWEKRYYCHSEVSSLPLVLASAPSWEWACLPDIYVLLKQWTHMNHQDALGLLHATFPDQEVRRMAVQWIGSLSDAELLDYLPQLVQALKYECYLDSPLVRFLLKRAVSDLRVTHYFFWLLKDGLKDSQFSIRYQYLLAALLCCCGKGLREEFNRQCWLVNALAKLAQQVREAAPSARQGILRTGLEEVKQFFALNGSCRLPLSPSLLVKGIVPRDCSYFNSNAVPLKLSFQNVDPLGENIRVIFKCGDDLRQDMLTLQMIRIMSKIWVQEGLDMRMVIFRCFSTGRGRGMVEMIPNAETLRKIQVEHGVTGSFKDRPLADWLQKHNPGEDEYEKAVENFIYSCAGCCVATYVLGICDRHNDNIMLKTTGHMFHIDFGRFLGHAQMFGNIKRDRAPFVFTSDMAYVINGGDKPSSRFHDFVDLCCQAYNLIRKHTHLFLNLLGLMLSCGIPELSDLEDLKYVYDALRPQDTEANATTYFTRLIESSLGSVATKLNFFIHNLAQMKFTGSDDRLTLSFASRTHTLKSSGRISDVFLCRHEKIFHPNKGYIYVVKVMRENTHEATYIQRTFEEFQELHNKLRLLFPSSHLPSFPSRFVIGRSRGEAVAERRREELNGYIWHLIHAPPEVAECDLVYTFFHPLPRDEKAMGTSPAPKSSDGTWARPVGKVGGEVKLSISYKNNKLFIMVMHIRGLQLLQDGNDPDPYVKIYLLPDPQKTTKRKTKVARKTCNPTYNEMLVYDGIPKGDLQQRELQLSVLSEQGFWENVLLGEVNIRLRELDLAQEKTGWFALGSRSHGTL
T1 sequence (P16234 24-1089): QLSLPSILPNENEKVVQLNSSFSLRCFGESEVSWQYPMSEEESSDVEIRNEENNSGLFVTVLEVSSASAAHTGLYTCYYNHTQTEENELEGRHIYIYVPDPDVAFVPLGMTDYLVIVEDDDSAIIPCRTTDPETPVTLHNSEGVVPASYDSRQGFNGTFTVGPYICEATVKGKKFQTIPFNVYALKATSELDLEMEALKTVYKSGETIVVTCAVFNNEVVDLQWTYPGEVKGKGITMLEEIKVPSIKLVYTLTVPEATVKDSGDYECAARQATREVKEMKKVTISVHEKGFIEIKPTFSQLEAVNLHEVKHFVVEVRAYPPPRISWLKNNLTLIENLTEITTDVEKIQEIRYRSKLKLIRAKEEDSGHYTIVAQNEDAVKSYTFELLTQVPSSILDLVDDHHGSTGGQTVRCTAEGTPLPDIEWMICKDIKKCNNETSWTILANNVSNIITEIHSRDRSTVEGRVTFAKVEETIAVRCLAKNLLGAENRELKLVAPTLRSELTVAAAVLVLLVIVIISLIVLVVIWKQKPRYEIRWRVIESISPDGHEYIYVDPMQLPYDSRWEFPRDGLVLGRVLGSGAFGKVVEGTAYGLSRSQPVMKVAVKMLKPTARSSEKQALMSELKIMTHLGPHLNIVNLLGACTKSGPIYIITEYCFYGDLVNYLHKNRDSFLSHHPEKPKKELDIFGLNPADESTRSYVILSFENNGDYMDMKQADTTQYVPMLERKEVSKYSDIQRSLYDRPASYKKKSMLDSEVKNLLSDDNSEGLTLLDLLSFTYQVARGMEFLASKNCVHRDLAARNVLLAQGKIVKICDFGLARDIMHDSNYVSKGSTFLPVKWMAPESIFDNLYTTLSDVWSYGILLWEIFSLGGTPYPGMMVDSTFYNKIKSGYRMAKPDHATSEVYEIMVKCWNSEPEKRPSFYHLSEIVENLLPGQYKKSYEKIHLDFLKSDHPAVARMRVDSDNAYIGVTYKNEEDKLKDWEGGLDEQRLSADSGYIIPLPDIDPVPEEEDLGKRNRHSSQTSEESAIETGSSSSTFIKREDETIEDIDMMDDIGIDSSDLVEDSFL
T2 sequence (P45983 whole entry): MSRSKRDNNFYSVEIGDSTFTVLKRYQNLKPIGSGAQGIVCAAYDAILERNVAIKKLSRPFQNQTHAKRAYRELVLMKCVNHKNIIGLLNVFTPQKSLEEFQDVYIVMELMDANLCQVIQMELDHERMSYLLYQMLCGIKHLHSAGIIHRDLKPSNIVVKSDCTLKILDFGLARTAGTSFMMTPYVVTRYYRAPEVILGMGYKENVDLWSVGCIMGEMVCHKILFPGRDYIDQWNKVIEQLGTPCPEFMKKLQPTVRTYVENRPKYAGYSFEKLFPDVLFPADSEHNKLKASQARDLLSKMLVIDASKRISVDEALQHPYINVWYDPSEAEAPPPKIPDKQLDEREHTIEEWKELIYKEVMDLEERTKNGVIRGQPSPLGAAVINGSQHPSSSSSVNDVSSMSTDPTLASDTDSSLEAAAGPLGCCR
T10 sequence (P27361 whole entry): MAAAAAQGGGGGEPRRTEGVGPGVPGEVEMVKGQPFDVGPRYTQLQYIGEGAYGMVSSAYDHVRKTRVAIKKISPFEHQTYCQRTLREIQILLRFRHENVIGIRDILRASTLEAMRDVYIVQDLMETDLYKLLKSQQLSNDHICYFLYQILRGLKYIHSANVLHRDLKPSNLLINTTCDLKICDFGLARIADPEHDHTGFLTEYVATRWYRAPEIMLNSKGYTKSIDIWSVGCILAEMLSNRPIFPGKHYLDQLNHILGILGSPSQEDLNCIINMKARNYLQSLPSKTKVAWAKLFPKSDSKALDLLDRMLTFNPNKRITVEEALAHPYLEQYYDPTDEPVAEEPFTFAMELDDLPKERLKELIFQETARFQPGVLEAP

SMILES	% inhibition of activity [1] [%]	% inhibition of activity [2] [%]	% inhibition of activity [3] [%]	% inhibition of activity [4] [%]	% inhibition of activity [5] [%]	% inhibition of activity [6] [%]	% inhibition of activity [7] [%]	% inhibition of activity [8] [%]	% inhibition of activity [9] [%]	% inhibition of activity [10] [%]	% inhibition of activity [11] [%]	% inhibition of activity [12] [%]	% inhibition of activity [13] [%]	% inhibition of activity [14] [%]
Cc1nc(Nc2[nH]nc3c2CN(C(=O)N[C@H](CN(C)C)c2ccccc2)C3(C)C)c2sccc2n1 [PF3758309, reference compound]	2	9	100	79	10	4	100	8	10	18	0	14	67	0
CCn1c(=O)c(-c2ccc(-c3noc(C)n3)cc2Cl)cc2cnc(Nc3ccc(C4CCN(C)CC4)cc3)nc21 [Frax716]	95	30	16	1	3	20	7	−1	23	8	98	7	45	1
CCn1c(=O)c(-c2ccc(-c3cncc(C)n3)cc2Cl)cc2cnc(NCCC3CCN(C)CC3)nc21 [Frax1036]	2	79	24	10	0	2	1	2	7	4	2	0	21	0
